The values that follow come from patent US11590134B2, “Aminopyrimidine amide autophagy inhibitors and methods of use thereof” (Deciphera Pharmaceuticals, LLC, priority 2019, dated 2023).

One experiment has as its target T1, LRRK2 kinase (Homo sapiens, UniProt Q5S007).
T1 construct: (residues 970-2528; ID NO; 4); purchased Thermo Fisher
Description: Biochemical assay for LRRK2 (coupled pyruvate kinase/lactate dehydrogenase assay). The following applies: 26.4 nM LRRK2 (residues 970-2528), peptide substrate, 1 mM ATP. The procedure:
Activity of LRRK2 kinase was determined spectroscopically using a coupled pyruvate kinase/lactate dehydrogenase assay that continuously monitors the ATP hydrolysis-dependent oxidation of NADH (e.g., Schindler et al. Science (2000) 289: 1938-1942). Assays were conducted in 384-well plates (100 uL final volume) using 26.4 nM LRRK2 (Thermo Fisher), 0.1 mM peptide substrate (RLGRDKYKTLRQIRQ (SEQ ID NO: 6)), 1.5 units pyruvate kinase, 2.1 units lactate dehydrogenase, 1 mM phosphoenol pyruvate, 0.28 mM NADH and 1 mM ATP in assay buffer (100 mM Tris, pH 7.5, 15 mM MgCl2, 0.5 mM DTT, 0.004% (w/v) BSA, and 0.004% Triton X-100). Inhibition of LRRK2 was measured by adding serial diluted test compound (final assay concentration of 1% DMSO). A decrease in absorption at 340 nm was monitored continuously for 6 hours at 30° C. on a multi-mode microplate reader (BioTek). The reaction rate was calculated using the 2-3 h time frame. The reaction rate at each concentration of compound was converted to percent inhibition using controls (i.e. reaction with no test compound and reaction with a known inhibitor) and IC50 values were calculated using software routines in Prism (GraphPad software).

Another experiment concerns the target T2, ULK2 kinase (Homo sapiens, UniProt Q8IYT8).
T2 construct: purchased Eurofins 14-772
Description: Biochemical assay for ULK2 (coupled pyruvate kinase/lactate dehydrogenase assay). The following applies: 9.7 nM ULK2 (residues 1-306), myelin basic protein substrate, 1 mM ATP; read-out: ULK2.2. Here is the method: (§1) Activity of ULK2 kinase was determined spectroscopically using a coupled pyruvate kinase/lactate dehydrogenase assay that continuously monitors the ATP hydrolysis-dependent oxidation of NADH (e.g., Schindler et al. Science (2000) 289: 1938-1942). Assays were conducted in 384-well plates (100 uL final volume) using 9.7 nM ULK2 (Eurofins CAT #14-772), 0.25 mg/mL myelin basic protein, 1.5 units pyruvate kinase, 2.1 units lactate dehydrogenase, 1 mM phosphoenol pyruvate, 0.28 mM NADH and 1 mM ATP in assay buffer (100 mM Tris, pH 7.5, 15 mM MgCl2, 0.5 mM DTT, 0.1% octyl-glucoside, 0.002% (w/v) BSA, and 0.002% Triton X-100). Inhibition of ULK2 was measured by adding serial diluted test compound (final assay concentration of 1% DMSO). A decrease in absorption at 340 nm was monitored continuously for 6 hours at 30° C. on a multi-mode microplate reader (BioTek). The reaction rate was calculated using the 2-3 h time frame. The reaction rate at each concentration of compound was converted to percent inhibition using controls (i.e. reaction with no test compound and reaction with a known inhibitor) and IC50 values were calculated by fitting a four-parameter sigmoidal curve to the data using Prism (GraphPad software).

The target in a further experiment is T3, ULK1 kinase (Homo sapiens, UniProt O75385).
T3 construct: purchased Eurofins 14-959
T3 sequence (O75385 with tags, fused parts or gaps): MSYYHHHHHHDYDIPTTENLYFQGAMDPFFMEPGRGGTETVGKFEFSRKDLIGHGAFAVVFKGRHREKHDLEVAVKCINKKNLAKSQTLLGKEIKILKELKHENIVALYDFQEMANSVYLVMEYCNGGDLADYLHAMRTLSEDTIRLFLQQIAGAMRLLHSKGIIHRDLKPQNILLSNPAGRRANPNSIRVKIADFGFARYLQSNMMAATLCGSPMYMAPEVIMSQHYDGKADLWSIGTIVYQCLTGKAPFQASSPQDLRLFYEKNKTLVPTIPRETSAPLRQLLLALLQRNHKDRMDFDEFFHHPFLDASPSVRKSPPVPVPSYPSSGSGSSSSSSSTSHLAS
The experiment is described as follows: Biochemical assay for ULK1.2 (coupled pyruvate kinase/lactate dehydrogenase assay). The conditions noted are these: 19 nM ULK1 (residues 1-314), myelin basic protein substrate, 1 mM ATP. Here is the method: as §1, with “ULK1” for “ULK2”, “19” for “9.7”, “#14-959),” for “#14-772),”

pIC50: −log10 of the molar value.

T1 sequence (Q5S007 with tags, fused parts or gaps): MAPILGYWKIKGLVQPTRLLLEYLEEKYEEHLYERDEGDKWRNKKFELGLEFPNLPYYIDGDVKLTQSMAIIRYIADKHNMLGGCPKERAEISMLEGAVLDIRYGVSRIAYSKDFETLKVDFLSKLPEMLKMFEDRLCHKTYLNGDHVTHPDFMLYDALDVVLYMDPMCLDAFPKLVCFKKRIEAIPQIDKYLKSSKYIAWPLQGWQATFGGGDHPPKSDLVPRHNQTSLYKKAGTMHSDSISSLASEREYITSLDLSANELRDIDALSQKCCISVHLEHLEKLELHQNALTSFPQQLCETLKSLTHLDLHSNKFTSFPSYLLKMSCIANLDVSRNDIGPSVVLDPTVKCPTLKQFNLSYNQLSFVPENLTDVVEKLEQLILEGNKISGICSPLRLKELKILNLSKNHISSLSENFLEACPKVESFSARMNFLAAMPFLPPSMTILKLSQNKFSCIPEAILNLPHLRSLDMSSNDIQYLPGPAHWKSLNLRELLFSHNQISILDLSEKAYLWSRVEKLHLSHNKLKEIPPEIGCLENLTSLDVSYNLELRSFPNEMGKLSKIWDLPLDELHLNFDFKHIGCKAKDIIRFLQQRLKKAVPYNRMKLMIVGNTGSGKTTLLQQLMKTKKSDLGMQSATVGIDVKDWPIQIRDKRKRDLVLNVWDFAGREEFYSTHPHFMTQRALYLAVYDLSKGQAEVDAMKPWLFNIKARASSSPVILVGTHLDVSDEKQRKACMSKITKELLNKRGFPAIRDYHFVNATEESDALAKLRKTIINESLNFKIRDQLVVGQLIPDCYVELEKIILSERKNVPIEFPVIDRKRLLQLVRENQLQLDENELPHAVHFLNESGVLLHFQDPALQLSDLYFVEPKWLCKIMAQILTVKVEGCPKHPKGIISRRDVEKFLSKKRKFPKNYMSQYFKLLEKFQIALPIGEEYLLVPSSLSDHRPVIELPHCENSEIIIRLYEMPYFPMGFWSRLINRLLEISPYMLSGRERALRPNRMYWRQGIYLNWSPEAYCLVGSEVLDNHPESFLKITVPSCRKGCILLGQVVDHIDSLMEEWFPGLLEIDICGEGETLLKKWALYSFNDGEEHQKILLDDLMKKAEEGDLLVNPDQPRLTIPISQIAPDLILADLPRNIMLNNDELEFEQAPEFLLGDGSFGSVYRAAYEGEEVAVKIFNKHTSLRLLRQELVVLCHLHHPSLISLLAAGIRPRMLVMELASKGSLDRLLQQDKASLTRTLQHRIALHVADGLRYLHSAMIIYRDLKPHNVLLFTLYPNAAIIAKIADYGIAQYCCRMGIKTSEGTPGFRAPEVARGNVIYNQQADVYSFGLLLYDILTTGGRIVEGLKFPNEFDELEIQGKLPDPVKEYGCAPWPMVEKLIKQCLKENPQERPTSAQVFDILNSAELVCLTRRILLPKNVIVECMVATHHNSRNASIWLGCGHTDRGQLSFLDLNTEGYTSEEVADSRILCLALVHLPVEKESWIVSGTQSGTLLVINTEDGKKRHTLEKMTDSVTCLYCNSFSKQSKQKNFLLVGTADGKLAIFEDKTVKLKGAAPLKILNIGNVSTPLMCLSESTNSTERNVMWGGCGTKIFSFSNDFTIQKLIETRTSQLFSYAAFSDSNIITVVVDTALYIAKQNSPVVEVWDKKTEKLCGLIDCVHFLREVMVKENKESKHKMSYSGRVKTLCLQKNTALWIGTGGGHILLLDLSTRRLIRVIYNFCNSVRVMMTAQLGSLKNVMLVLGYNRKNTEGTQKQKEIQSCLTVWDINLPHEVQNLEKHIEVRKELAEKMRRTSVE
T2 sequence (Q8IYT8 with tags, fused parts or gaps): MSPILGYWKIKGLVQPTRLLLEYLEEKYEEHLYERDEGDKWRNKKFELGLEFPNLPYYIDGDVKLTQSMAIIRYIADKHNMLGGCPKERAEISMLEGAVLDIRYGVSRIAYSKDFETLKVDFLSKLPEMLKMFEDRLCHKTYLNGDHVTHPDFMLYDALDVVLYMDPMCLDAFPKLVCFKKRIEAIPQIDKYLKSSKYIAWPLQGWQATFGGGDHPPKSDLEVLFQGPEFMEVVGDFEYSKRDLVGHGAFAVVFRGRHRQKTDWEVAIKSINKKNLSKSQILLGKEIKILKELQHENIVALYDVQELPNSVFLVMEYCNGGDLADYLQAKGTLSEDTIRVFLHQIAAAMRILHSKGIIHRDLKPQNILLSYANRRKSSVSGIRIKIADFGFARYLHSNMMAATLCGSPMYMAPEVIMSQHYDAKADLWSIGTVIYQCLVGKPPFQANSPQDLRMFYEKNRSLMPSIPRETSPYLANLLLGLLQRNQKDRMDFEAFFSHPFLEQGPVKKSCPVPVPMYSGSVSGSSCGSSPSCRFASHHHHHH

With `CC(C)c1cc(N2CCN(C)CC2)ccc1Nc1ncc(C(F)(F)F)c(NCCCNC(=O)C2CCC2)n1` [Example 3], the pIC50 at LRRK2 kinase is 7.00 to 9.00; on ULK2 kinase it was 7.00 to 7.60.

On to `COc1cc(N2CCN(C)CC2)ccc1Nc1ncc(C(F)(F)F)c(NCCCNC(=O)C2CCC2)n1` [Example 4], for which the pIC50 is 7.00 to 9.00 at LRRK2 kinase and 7.00 to 7.60 at ULK2 kinase.

With `CC(C)c1cc(N2CCN(C)CC2)ccc1Nc1ncc(Br)c(NCCCNC(=O)C2CCC2)n1` [Example 8], the results for the pIC50 at LRRK2 kinase and at ULK2 kinase were 4.70 to 6.22 and 6.30 to 7.00, respectively.

Take `Cc1cc(N2CCN(C)CC2)ccc1Nc1ncc(C(F)(F)F)c(NCCCNC(=O)C(C)(C)C)n1` [Example 12]: the pIC50 is 7.00 to 7.60 against ULK1 kinase, 6.52 to 7.00 against LRRK2 kinase and 6.30 to 7.00 at ULK2 kinase.

In the case of `CN1CCN(c2ccc(Nc3ncc(C(F)(F)F)c(NCCCNC(=O)C4CCC4)n3)c(C3CC3)c2)CC1` [Example 14], the pIC50 against LRRK2 kinase was 6.52 to 7.00; on ULK2 kinase, 7.60 to 9.00.
